Results taken from ChEMBL document CHEMBL1130921, “The cholesterol metabolite cholest-4-en-3-one and its 3-oxo derivatives suppress body weight gain, body fat accumulation and serum lipid concentration in mice” (Bioorg Med Chem Lett, 1998).

What was measured:
[1] = species: Mus musculus; assay: Evaluated for potency in CDF1 mice and the inhibition of body weight gain was determined; assay type: functional
[2] = species: Mus musculus; assay: Feed efficiency was calculated by dividing body weight gain by feed consumption in mouse; assay type: functional
[3] = species: Mus musculus; assay: Evaluated for potency in CDF1 mice and the ability of it to decrease feed consumption was determined; assay type: functional
[4] = species: Mus musculus; assay: Compound was evaluated for its potency in CDF1 mice and the serum triglyceride levels were determined; assay type: ADME, organism-based
[5] = species: Mus musculus; assay: Compound was evaluated for its potency in CDF1 mice and the serum cholesterol levels were determined; assay type: ADME, organism-based
[6] = species: Mus musculus; assay: Compound was evaluated for its potency in CDF1 mice and the abdominal fat weight was determined.; assay type: functional, Abdomen
[7] = species: Mus musculus; assay: Compound was evaluated for its potency in CDF1 mice and the serum metabolite levels were determined; assay type: ADME, organism-based
[8] = species: Mus musculus; assay: Compound was evaluated for its potency in CDF1 mice and the abdominal fat weight was determined; assay type: functional, Abdomen

SMILES | Body weight gain [1] | Feed efficiency [2] | Feed consumption [3] | Serum triglyceride [4] | Serum cholesterol [5] | Abdominal fat [6] | Serum metabolite [7] | Abdominal fat [8]
CC(=O)OC1CC[C@@]2(C)C(=CC[C@H]3[C@@H]4CC[C@H]([C@H](C)CCCC(C)C)[C@@]4(C)CC[C@@H]32)C1 (some centres undefined) | 0.52 g/day | 0.1 | 5.28 g/day | – | – | – | – | –
CC(C)CCC[C@@H](C)[C@H]1CC[C@H]2[C@@H]3CC(=O)C4=CC(=O)CC[C@]4(C)[C@H]3CC[C@]12C | -0.36 g/day | -0.06 | 6 g/day | 133.6 mg/dL | 110 mg/dL | 0.3 g | 0 mg/dL | –
CC[C@H](/C=C/[C@@H](C)[C@H]1CC[C@H]2[C@@H]3CC=C4CC(=O)CC[C@]4(C)[C@H]3CC[C@]12C)C(C)C | 0.52 g/day | 0.08 | 6.37 g/day | – | – | – | – | –
CC(C)CCC[C@@H](C)[C@H]1CC[C@H]2[C@@H]3CC[C@H]4CC(=O)CC[C@]4(C)[C@H]3CC[C@]12C [CHOLESTAN-3-ONE] | 0.28 g/day | 0.06 | 4.6 g/day | 201.7 mg/dL | 134.1 mg/dL | 0.92 g | 23 mg/dL | –
CC(C)CCC[C@@H](C)[C@H]1CC[C@H]2[C@@H]3C=CC4=CC(=O)C=C[C@]4(C)[C@H]3CC[C@]12C | 0.27 g/day | 0.05 | 5.41 g/day | 390.4 mg/dL | 206.3 mg/dL | – | 0 mg/dL | –
CC(C)CCC[C@@H](C)[C@H]1CC[C@H]2[C@@H]3C[C@H](Br)[C@]4(Br)CC(=O)CC[C@]4(C)[C@H]3CC[C@]12C | 0.43 g/day | 0.08 | 5.72 g/day | – | – | – | – | –
CC(C)CCC[C@@H](C)[C@H]1CC[C@H]2[C@@H]3CC[C@@H]4CC(=O)CC[C@]4(C)[C@H]3CC[C@]12C | 0.5 g/day | 0.09 | 5.39 g/day | 291.2 mg/dL | 161.3 mg/dL | 1.25 g | 22 mg/dL | –
CC(C)CCC[C@@H](C)[C@H]1CC[C@H]2[C@@H]3CCC4=CC(=O)C=C[C@]4(C)[C@H]3CC[C@]12C | 0.15 g/day | 0.03 | 4.94 g/day | 266.9 mg/dL | 165.4 mg/dL | 0.61 g | 0 mg/dL | –
CCCCCCCCC(=O)OC1CC[C@@]2(C)C(=CC[C@H]3[C@@H]4CC[C@H]([C@H](C)CCCC(C)C)[C@@]4(C)CC[C@@H]32)C1 (some centres undefined) | 0.52 g/day | 0.1 | 5.28 g/day | – | – | – | – | –
CC(C)CCC[C@@H](C)[C@H]1CC[C@H]2[C@@H]3CCC4=C(CSc5ccccc5)C(=O)CC[C@]4(C)[C@H]3CC[C@]12C | 0.56 g/day | 0.09 | 6.23 g/day | – | – | – | – | –
CC(C)CCC[C@@H](C)[C@H]1CC[C@H]2[C@@H]3C=CC4=CC(=O)CC[C@]4(C)[C@H]3CC[C@]12C | 0.32 g/day | 0.07 | 4.71 g/day | 172.6 mg/dL | 112.7 mg/dL | 0.9 g | 22 mg/dL | –
CC(C)CCC[C@@H](C)[C@H]1CC[C@H]2[C@@H]3C[C@@H](O)C4=CC(=O)CC[C@]4(C)[C@H]3CC[C@]12C | 0.28 g/day | 0.05 | 5.7 g/day | 120 mg/dL | 136.7 mg/dL | 0.8 g | 0 mg/dL | –
CC(C)CCC[C@@H](C)[C@H]1CC[C@H]2[C@@H]3CCC4=C(Br)C(=O)CC[C@]4(C)[C@H]3CC[C@]12C | 0.52 g/day | 0.08 | 6.58 g/day | – | – | – | – | –
CC(C)CCC[C@@H](C)[C@H]1CC[C@H]2[C@@H]3CC[C@H]4CC(O)CC[C@]4(C)[C@H]3CC[C@]12C (some centres undefined) | 0.38 g/day | 0.07 | 5.45 g/day | 212.7 mg/dL | 148.1 mg/dL | 0.9 g | 23 mg/dL | –
CC(C)CCC[C@@H](C)[C@H]1CC[C@H]2[C@@H]3CCC4C[C@@H](O)CC[C@]4(C)[C@H]3CC[C@]12C (some centres undefined) | 0.52 g/day | 0.09 | 5.83 g/day | – | – | – | – | –
CC[C@H](/C=C/[C@@H](C)[C@H]1CC[C@H]2[C@@H]3CC=C4CC(O)CC[C@]4(C)[C@H]3CC[C@]12C)C(C)C (some centres undefined) | 0.57 g/day | 0.09 | 6.3 g/day | – | – | – | – | –
CC(C)CCC[C@@H](C)[C@H]1CC[C@H]2[C@@H]3CC=C4CC(=O)CC[C@]4(C)[C@H]3CC[C@]12C [CHOLEST-5-EN-3-ONE] | -0.1 g/day | 0.03 | 3.62 g/day | 87.5 mg/dL | 122.1 mg/dL | 0.48 g | 0 mg/dL | –
CC(C)CCC[C@@H](C)[C@H]1CC[C@H]2[C@@H]3C[C@H](O)[C@]4(O)CC(=O)CC[C@]4(C)[C@H]3CC[C@]12C | 0.58 g/day | 0.11 | 5.39 g/day | – | – | – | – | –
CC(C)CCC[C@@H](C)[C@H]1CC[C@H]2[C@@H]3CC=C4CCCC[C@]4(C)[C@H]3CC[C@]12C | 0.56 g/day | 0.08 | 6.95 g/day | 253.6 mg/dL | 165.8 mg/dL | – | 0 mg/dL | –
CC(C)CCC[C@@H](C)[C@H]1CC[C@H]2[C@@H]3CC[C@@]45O[C@@H]4C(=O)CC[C@]5(C)[C@H]3CC[C@]12C | 0.46 g/day | 0.08 | 6.14 g/day | 218 mg/dL | 141.6 mg/dL | 1.12 g | 0 mg/dL | –
CC(=O)OC1=CC2=CC[C@H]3[C@@H]4CC[C@H]([C@H](C)CCCC(C)C)[C@@]4(C)CC[C@@H]3[C@@]2(C)CC1 | 0.33 g/day | 0.06 | 5.64 g/day | 119.9 mg/dL | 187.5 mg/dL | 1.03 g | 22 mg/dL | –
CC[C@H](CC[C@@H](C)[C@H]1CC[C@H]2[C@@H]3CCC4CC(O)CC[C@]4(C)[C@H]3CC[C@]12C)C(C)C (some centres undefined) | 0.49 g/day | 0.09 | 5.43 g/day | – | – | – | – | –
CC(C)CCC[C@@H](C)[C@H]1CC[C@H]2[C@@H]3CC[C@@H]4CC(O)CC[C@]4(C)[C@H]3CC[C@]12C (some centres undefined) | 0.55 g/day | 0.09 | 6.1 g/day | – | – | – | – | –
CC(C)CCC[C@@H](C)[C@H]1CC[C@H]2[C@@H]3C[C@H](Br)C4=CC(=O)CC[C@]4(C)[C@H]3CC[C@]12C | 0.26 g/day | 0.06 | 4.2 g/day | 257.3 mg/dL | 176.8 mg/dL | 0.81 g | 22 mg/dL | –
CC(C)CCC[C@@H](C)[C@H]1CC[C@H]2[C@@H]3CC=C4C=C(N5CCCC5)CC[C@]4(C)[C@H]3CC[C@]12C | -0.18 g/day | -0.03 | 6.1 g/day | 277.7 mg/dL | 158.1 mg/dL | 0.41 g | 22 mg/dL | –
CC(C)CCC[C@@H](C)[C@H]1CC[C@H]2[C@@H]3CCC4=CC(=O)CC[C@]4(C)[C@H]3CC[C@]12C [4-CHOLESTEN 3-ONE] | 0.35 g/day | 0.06 | 5.43 g/day | 218.3 mg/dL | 115.8 mg/dL | – | 22 mg/dL | 0.68 g
CC[C@H](CC[C@@H](C)[C@H]1CC[C@H]2[C@@H]3CCC4=CC(=O)CC[C@]4(C)[C@H]3CC[C@]12C)C(C)C | 0.4 g/day | 0.08 | 4.94 g/day | 188.3 mg/dL | 164.6 mg/dL | 1 g | 0 mg/dL | –
CC(C)CCC[C@@H](C)[C@H]1CC[C@H]2[C@@H]3CC=C4CC(OC(=O)c5ccccc5)CC[C@]4(C)[C@H]3CC[C@]12C (some centres undefined) | 0.46 g/day | 0.08 | 5.57 g/day | – | – | – | – | –
CC(C)CCC[C@@H](C)[C@H]1CC[C@H]2[C@@H]3CCC4CC(O)CC[C@]4(C)[C@H]3CC[C@]12C (some centres undefined) | 0.58 g/day | 0.09 | 6.48 g/day | – | – | – | – | –
